Laboratory results published in patent publication US20230077983A1, “METHODS OF TREATING AND PREVENTING ENGRAFTMENT ARRHYTHMIAS” (UNIVERSITY OF WASHINGTON, priority 2020, published 2023).
Read-outs that look alike come from different tables or passages of the source. Marks after values point to notes of the source that are not given here.

How the values were obtained:
[1] = test system: engraftment arrhythmia (EA); settings: for Result: HR effect / Result: response on EA burden / Result: cardioversion: Table 1, swine; for Effect: HR effect / Effect: response on EA burden / Effect: cardioversion: Table 2, Phase 1; for effect on heart rate (agent alone) / effect on rhythm: cardioversion / sinus rhythm / arrhythmia burden (agent alone): running text and figure legend, pigs in EA
Protocol: A number of anti-arrhythmic therapies were tested to determine their efficacy in treating and preventing engraftment arrhythmias.
The objective of this study was to identify a pharmacological regimen to attenuate arrhythmias following cardiac remuscularization therapy. This study was designed in two phases: the first, to observe the natural history of EA and screen various antiarrhythmic agents for efficacy and the second, test for efficacy (FIG. 16). All subjects were 30-40 kg castrated male Yucatan minipigs between 6-13 months of age (S&S Farms). In Phase 1, nine subjects underwent cardiac remuscularization therapy with 500×10^6 hESC-CM delivered by direct surgical transepicardial injections or later, by percutaneous transendocardial injections. The first four subjects (one non-infarcted and three infarcted) were followed to learn the natural history of EA and establish clinical endpoints and parameters for the Phase 2 drug trial. The subsequent five subjects underwent systematic dosing with antiarrhythmic agents with continuous electrocardiography (ECG) monitoring to determine effect on rhythm and rate (Table 2).
In addition, the funny current/HCN4 channel antagonist, ivabradine, was tested (Tables 1 and 2). This series was not meant to be definitive but rather to rapidly identify candidate agents. Animals were brought into the laboratory while in EA, anesthetized, and the effects of short-term intravenous infusion of anti-arrhythmic agents were studied.
Subjects were administered multiple trials antiarrhythmics and observed for acute response by continuous ECG monitoring. Intravenous agents were delivered as a bolus dose over 2 minutes. Oral agents were administrated by direct observation in a minimum of apples, apple sauce or pumpkin puree with daily feeding and dosed daily for dose escalation. A washout period of at least three days was provided between agents. Amiodarone was administered as the last agent for testing given concern for prolonged half-life and elimination kinetics. All agents were tested in at least two subjects.

[2] = Amiodarone drug monitoring by liquid chromatography-mass spectrometry after discontinuation of oral therapy; format: in vivo, pigs; settings: within 1 week of discontinuation of chronic oral amiodarone; pig
Protocol: Amiodarone levels were measured in plasma by a liquid chromatography-mass spectrometry assay. Chronic oral amiodarone in six pigs was discontinued after achieving electrical maturation and stabilization of engraftment arrythmia. Serum concentrations of amiodarone were assayed weekly, including 3-4 weeks after discontinuation.
A novel liquid chromatography—mass spectrometry assay was established for amiodarone to monitor steady state serum levels in the porcine model and guide oral dosing to ensure efficacy and avoid dose-related toxicity. A target serum level of 1.5-4.0 μg/ml was extrapolated from prior human pharmacokinetic studies (16,17). Elimination kinetics after discontinuation of oral amiodarone therapy were also studied by obtaining weekly trough concentrations in 6 pigs (subjects 6, 7, 8, 13, 14, 16) (FIG. 18).

[3] = test system: engraftment arrhythmia (EA); test: Antiarrhythmic trial in non-human primate engraftment model; format: in vivo; settings: Table 1, concentration not given

SMILES	effect in the antiarrhythmic screen (heart rate or arrhythmia burden) [1]	Result: HR effect [1]	Result: response on EA burden [1]	Effect: HR effect ([1]; pig)	Effect: response on EA burden ([1]; pig)	other results
O=C(NCC1CCCCN1)c1cc(OCC(F)(F)F)ccc1OCC(F)(F)F (centres unmarked) [Flecainide]	no significant effect	No response on HR or EA burden	No response on HR or EA burden	No response on HR or EA burden	No response on HR or EA burden	
CCCCc1oc2ccccc2c1C(=O)c1cc(I)c(OCCN(CC)CC)c(I)c1 [Amiodarone]		Modest HR effect		Modest HR effect		Result: cardioversion [1]: frequent; Effect: cardioversion ([1]; pig): frequent; effect on heart rate (agent alone) [1]: moderate effect on reducing heart rate; effect on rhythm: cardioversion / sinus rhythm / arrhythmia burden (agent alone) [1]: effective as an intravenous bolus to cardiovert; Average serum amiodarone [2]: 0.42 ± 0.12 µg/mL
COc1cc2c(cc1OC)CC(=O)N(CCCN(C)C[C@H]1Cc3cc(OC)c(OC)cc31)CC2 [Ivabradine]		Robust dose-dependent HR		Robust dose-dependent HR effect (PO	only)**, no response on EA burden	Effect: adverse events (footnotes * and **) ([1]; pig, in vivo): **Severe bradycardia; effect on heart rate (agent alone) ([1]; listed as ivabradine): robust dose-dependent effects on heart rate; effect on rhythm: cardioversion / sinus rhythm / arrhythmia burden (agent alone) ([1]; listed as ivabradine): did not restore sinus rhythm
O=C1CN(/N=C/c2ccc(-c3ccc([N+](=O)[O-])cc3)o2)C(O)=N1 [Dantrolene]		No response on HR or EA burden	No response on HR or EA burden			
COCCc1ccc(OCC(O)CNC(C)C)cc1 (centres unmarked) [Metoprolol]	no significant effect	Moderate HR effect (IV only)	no	Moderate HR effect (IV only)	no	
CCN(CC)CC(=O)Nc1c(C)cccc1C [Lidocaine]	no significant effect	Modest HR effect		Modest HR effect		Result: cardioversion [1]: rare; Effect: cardioversion ([1]; pig): rare
CCCNCC(O)COc1ccccc1C(=O)CCc1ccccc1 (centres unmarked) [Propafenone]						Effect: adverse events (footnotes * and **) ([1]; pig, in vivo): *Severe nausea/emesis observed at therapeutic doses, limiting clinical utility; Result: adverse events (* remarks) ([1]; pig, in vivo): * Dose limited emesis
COc1ccc(CCN(C)CCCC(C#N)(c2ccc(OC)c(OC)c2)C(C)C)cc1OC (centres unmarked) [Verapamil]						Result [3]: Sudden cardiac death
CC(C)NCC(O)c1ccc(NS(C)(=O)=O)cc1 (centres unmarked) [Sotalol]	no significant effect	No response on HR or EA burden	No response on HR or EA burden	No response on HR or EA burden	No response on HR or EA burden	
